Measurements from patent US8541588B2, “Sulfonamide derivatives” (Pfizer Limited, priority 2009, dated 2013).

The molecules below were run against T1, Nav1.7 (or SCN9A) channel; HEK cells stably transfected with hSCN9A (Homo sapiens, UniProt Q15858) (assay: Nav1.7 block, PatchXpress 7000 automated whole-cell voltage clamp, estimated IC50 (EIC50)). Conditions: PatchXpress platform; hSCN9A HEK cells held at V1/2 of inactivation; estimated IC50.
T1 construct: expressed in transfected cells
Format: cell-based

T1 sequence (Q15858 whole entry): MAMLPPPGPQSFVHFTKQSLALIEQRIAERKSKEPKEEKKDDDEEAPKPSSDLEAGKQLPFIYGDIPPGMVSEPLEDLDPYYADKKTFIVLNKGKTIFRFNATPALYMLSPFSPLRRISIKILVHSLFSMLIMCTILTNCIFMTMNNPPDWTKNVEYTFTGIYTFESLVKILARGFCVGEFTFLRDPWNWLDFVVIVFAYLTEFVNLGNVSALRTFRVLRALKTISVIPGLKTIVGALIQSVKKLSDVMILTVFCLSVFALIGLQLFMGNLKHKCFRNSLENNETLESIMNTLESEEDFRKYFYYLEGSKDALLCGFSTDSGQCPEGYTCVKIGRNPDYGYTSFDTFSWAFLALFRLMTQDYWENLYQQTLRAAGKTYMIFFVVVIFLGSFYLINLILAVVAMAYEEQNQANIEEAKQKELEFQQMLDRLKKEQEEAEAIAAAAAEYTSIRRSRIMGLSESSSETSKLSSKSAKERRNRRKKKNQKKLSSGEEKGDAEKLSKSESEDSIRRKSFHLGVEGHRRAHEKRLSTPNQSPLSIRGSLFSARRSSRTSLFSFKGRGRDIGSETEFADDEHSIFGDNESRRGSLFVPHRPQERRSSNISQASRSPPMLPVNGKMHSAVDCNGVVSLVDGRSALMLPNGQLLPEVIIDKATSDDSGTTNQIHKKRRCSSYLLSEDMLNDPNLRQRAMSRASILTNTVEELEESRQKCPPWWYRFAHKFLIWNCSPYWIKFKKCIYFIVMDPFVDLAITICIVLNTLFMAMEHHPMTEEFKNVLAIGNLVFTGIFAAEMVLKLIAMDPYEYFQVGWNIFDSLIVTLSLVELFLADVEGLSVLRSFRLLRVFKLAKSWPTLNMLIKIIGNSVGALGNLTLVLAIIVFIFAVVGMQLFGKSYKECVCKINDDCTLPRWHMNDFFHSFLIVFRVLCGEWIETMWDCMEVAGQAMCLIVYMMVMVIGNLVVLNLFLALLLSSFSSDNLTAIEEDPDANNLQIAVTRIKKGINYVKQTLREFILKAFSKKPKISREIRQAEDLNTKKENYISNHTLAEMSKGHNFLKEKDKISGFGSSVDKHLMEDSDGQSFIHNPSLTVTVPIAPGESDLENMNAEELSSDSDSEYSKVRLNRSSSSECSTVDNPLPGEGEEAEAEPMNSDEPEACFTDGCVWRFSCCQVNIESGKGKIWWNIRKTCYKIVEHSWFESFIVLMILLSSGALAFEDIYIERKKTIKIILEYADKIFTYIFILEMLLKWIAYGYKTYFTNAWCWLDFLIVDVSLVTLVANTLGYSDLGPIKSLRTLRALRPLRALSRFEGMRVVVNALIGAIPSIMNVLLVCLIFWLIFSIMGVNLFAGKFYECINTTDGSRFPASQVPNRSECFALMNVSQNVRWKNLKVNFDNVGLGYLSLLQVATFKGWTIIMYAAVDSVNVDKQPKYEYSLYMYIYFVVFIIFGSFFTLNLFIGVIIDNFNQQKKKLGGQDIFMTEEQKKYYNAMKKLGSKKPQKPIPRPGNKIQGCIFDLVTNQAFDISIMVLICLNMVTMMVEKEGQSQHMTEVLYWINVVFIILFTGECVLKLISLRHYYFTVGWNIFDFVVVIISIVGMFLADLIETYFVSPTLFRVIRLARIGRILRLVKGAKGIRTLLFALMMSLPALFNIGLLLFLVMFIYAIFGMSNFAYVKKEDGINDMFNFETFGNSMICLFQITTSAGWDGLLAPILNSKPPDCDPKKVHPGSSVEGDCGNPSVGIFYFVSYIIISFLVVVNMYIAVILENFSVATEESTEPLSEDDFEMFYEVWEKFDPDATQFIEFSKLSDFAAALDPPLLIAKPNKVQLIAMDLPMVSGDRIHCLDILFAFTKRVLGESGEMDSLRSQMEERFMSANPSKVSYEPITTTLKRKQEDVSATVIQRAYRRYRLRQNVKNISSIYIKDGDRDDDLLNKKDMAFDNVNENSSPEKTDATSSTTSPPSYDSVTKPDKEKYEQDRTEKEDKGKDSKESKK

Structure (SMILES) | IC50 [nM]
Cn1ncc(-c2ccccc2)c1Oc1ccc(S(=O)(=O)Nc2ncc(Cl)s2)cc1C#N [Example 138, N-(5-chloro-1,3-thiazol-2-yl)-3-cyano-4-[(1-methyl-4-phenyl-1H-pyrazol-5-yl)oxy]benzenesulfonamide] | 38700
Cc1cn(Cc2ccccc2)nc1Oc1ccc(S(=O)(=O)Nc2ncc(Cl)s2)cc1C#N [Example 139, 4-[(1-benzyl-4-methyl-1H-pyrazol-3-yl)oxy]-N-(5-chloro-1,3-thiazol-2-yl)-3-cyanobenzenesulfonamide] | 5000
CC(C)c1nn(-c2ccccc2Cl)cc1Oc1ccc(S(=O)(=O)Nc2ncc(Cl)s2)cc1C#N [Example 140, 4-{[1-(2-chlorophenyl)-3-isopropyl-1H-pyrazol-4-yl]oxy}-N-(5-chloro-1,3-thiazol-2-yl)-3-cyanobenzenesulfonamide] | 3410
N#Cc1cc(S(=O)(=O)Nc2ncc(Cl)s2)ccc1Oc1cc(C(F)(F)F)nn1-c1ccccc1 [Example 141, N-(5-chloro-1,3-thiazol-2-yl)-3-cyano-4-{[1-phenyl-3-(trifluoromethyl)-1H-pyrazol-5-yl]oxy}benzenesulfonamide] | 1230
N#Cc1cc(S(=O)(=O)Nc2ncc(Cl)s2)ccc1Oc1cc(C(F)(F)F)nn1Cc1ccccc1 [Example 142, 4-{[1-benzyl-3-(trifluoromethyl)-1H-pyrazol-5-yl]oxy}-N-(5-chloro-1,3-thiazol-2-yl)-3-cyanobenzenesulfonamide] | 2620
Cc1cc(Oc2ccc(S(=O)(=O)Nc3ncc(Cl)s3)cc2C#N)n(C2CCCCC2)n1 [Example 143, N-(5-chloro-1,3-thiazol-2-yl)-3-cyano-4-[(1-cyclohexyl-3-methyl-1H-pyrazol-5-yl)oxy]benzenesulfonamide] | >10000
N#Cc1cc(S(=O)(=O)Nc2ncc(Cl)s2)ccc1Oc1ccccc1C1CC1 [Example 144, N-(5-chloro-1,3-thiazol-2-yl)-3-cyano-4-(2-cyclopropylphenoxy)benzenesulfonamide] | 1390
COc1ccc(-n2cc(Oc3ccc(S(=O)(=O)Nc4ncc(Cl)s4)cc3C#N)c(C(C)C)n2)cc1 [Example 145, N-(5-chloro-1,3-thiazol-2-yl)-3-cyano-4-{[3-isopropyl-1-(4-methoxyphenyl)-1H-pyrazol-4-yl]oxy}benzenesulfonamide] | 2000
N#Cc1cc(S(=O)(=O)Nc2ncc(Cl)s2)ccc1Oc1ccccc1-c1ccccc1 [Example 146, 4-(biphenyl-2-yloxy)-N-(5-chloro-1,3-thiazol-2-yl)-3-cyanobenzenesulfonamide] | 890
O=S(=O)(Nc1ncc(Cl)s1)c1ccc(Oc2ccccc2-c2ccccc2)c(F)c1 [Example 147, 4-(Biphenyl-2-yloxy)-N-(5-chloro-thiazol-2-yl)-3-fluoro-benzenesulfonamide] | 1510
O=S(=O)(Nc1ncns1)c1ccc(Oc2ccc(CC3CC3)cc2)c(Cl)c1 [Example 148, 3-chloro-4-[4-(cyclopropylmethyl)phenoxy]-N-1,2,4-thiadiazol-5-ylbenzenesulfonamide] | 2530
O=S(=O)(Nc1ncns1)c1ccc(Oc2ccc(-c3ccccc3)cc2)c(Cl)c1 [Example 149, 4-(biphenyl-4-yloxy)-3-chloro-N-1,2,4-thiadiazol-5-ylbenzenesulfonamide] | 920
O=S(=O)(Nc1ncns1)c1ccc(Oc2ccccc2-c2ccccc2)c(Cl)c1 [Example 150, 4-(biphenyl-2-yloxy)-3-chloro-N-1,2,4-thiadiazol-5-ylbenzenesulfonamide] | 190
COc1ccc(-c2cc(F)ccc2Oc2ccc(S(=O)(=O)Nc3nccs3)cc2C#N)cn1 [Example 151, 3-cyano-4-[4-fluoro-2-(6-methoxypyridin-3-yl)phenoxy]-N-1,3-thiazol-2-ylbenzenesulfonamide] | 50
N#Cc1cc(S(=O)(=O)Nc2nccs2)ccc1Oc1ccc(F)cc1-c1ccc(F)cc1 [Example 152, 3-cyano-4-[(4′,5-difluorobiphenyl-2-yl)oxy]-N-1,3-thiazol-2-ylbenzenesulfonamide] | 80
N#Cc1cc(S(=O)(=O)Nc2nccs2)ccc1Oc1ccc(F)cc1-c1cccc(CCO)c1 [Example 153, 3-cyano-4-{[5-fluoro-3′-(2-hydroxyethyl)biphenyl-2-yl]oxy}-N-1,3-thiazol-2-ylbenzenesulfonamide] | 60
COc1cccc(-c2cc(F)ccc2Oc2ccc(S(=O)(=O)Nc3nccs3)cc2C#N)c1 [Example 154, 3-cyano-4-[(5-fluoro-3′-methoxybiphenyl-2-yl)oxy]-N-1,3-thiazol-2-ylbenzenesulfonamide] | 130
CC(C)Oc1ccc(-c2cc(Cl)ccc2Oc2ccc(S(=O)(=O)Nc3nccs3)cc2C#N)cc1 [Example 155, 4-[(5-chloro-4′-isopropoxybiphenyl-2-yl)oxy]-3-cyano-N-1,3-thiazol-2-ylbenzenesulfonamide] | 850
N#Cc1cc(S(=O)(=O)Nc2nccs2)ccc1Oc1ccc(Cl)cc1-c1ccccc1 [Example 156, 4-[(5-chlorobiphenyl-2-yl)oxy]-3-cyano-N-1,3-thiazol-2-ylbenzenesulfonamide] | 30

Structure (SMILES) | IC50 [nM]
CC(C)Oc1ccc(-c2cc(F)ccc2Oc2ccc(S(=O)(=O)Nc3nccs3)cc2C#N)cc1 [Example 157, 3-cyano-4-[(5-fluoro-4′-isopropoxybiphenyl-2-yl)oxy]-N-1,3-thiazol-2-ylbenzenesulfonamide] | 450
N#Cc1cc(S(=O)(=O)Nc2nccs2)ccc1Oc1ccc(F)cc1-c1ccc(F)c(F)c1 [Example 158, 3-cyano-N-1,3-thiazol-2-yl-4-[(3′,4′,5-trifluorobiphenyl-2-yl)oxy]benzenesulfonamide] | 310
Cc1nccn1-c1cc(Cl)ccc1Oc1ccc(S(=O)(=O)Nc2nccs2)cc1C#N [Example 159, 4-[4-chloro-2-(2-methyl-1H-imidazol-1-yl)phenoxy]-3-cyano-N-1,3-thiazol-2-ylbenzenesulfonamide] | 80
COCc1cccc(-c2cc(F)ccc2Oc2ccc(S(=O)(=O)Nc3nccs3)cc2C#N)c1 [Example 160, 3-cyano-4-{[5-fluoro-3′-(methoxymethyl)biphenyl-2-yl]oxy}-N-1,3-thiazol-2-ylbenzenesulfonamide] | 60
N#Cc1cc(S(=O)(=O)Nc2nccs2)ccc1Oc1ccc(F)cc1-c1cccc(CO)c1 [Example 161, 3-cyano-4-{[5-fluoro-3′-(hydroxymethyl)biphenyl-2-yl]oxy}-N-1,3-thiazol-2-ylbenzenesulfonamide] | 70
N#Cc1cc(S(=O)(=O)Nc2nccs2)ccc1Oc1ccc(F)cc1-c1ccc(CO)cc1 [Example 162, 3-cyano-4-{[5-fluoro-4′-(hydroxymethyl)biphenyl-2-yl]oxy}-N-1,3-thiazol-2-ylbenzenesulfonamide] | 420
COCc1ccc(-c2cc(F)ccc2Oc2ccc(S(=O)(=O)Nc3nccs3)cc2C#N)cc1 [Example 163, 3-cyano-4-{[5-fluoro-4′-(methoxymethyl)biphenyl-2-yl]oxy}-N-1,3-thiazol-2-ylbenzenesulfonamide] | 410
N#Cc1cc(S(=O)(=O)Nc2nccs2)ccc1Oc1ccc(Cl)cc1-c1ccccn1 [Example 164, 4-(4-chloro-2-pyridin-2-ylphenoxy)-3-cyano-N-1,3-thiazol-2-ylbenzenesulfonamide] | 580
N#Cc1cc(S(=O)(=O)Nc2nccs2)ccc1Oc1ccccc1-c1ccccc1 [Example 165, 4-(biphenyl-2-yloxy)-3-cyano-N-(thiazol-2-yl)benzenesulfonamide] | 50
Cc1nc(-c2ccccc2Oc2ccc(S(=O)(=O)Nc3nccs3)cc2C#N)cs1 [Example 166, 3-cyano-4-(2-(2-methylthiazol-4-yl)phenoxy)-N-(thiazol-2-yl)benzenesulfonamide] | 1810
N#Cc1cc(S(=O)(=O)Nc2nccs2)ccc1Oc1cnn(Cc2ccc(Cl)cc2)c1 [Example 167, 4-(1-(4-chlorobenzyl)-1H-pyrazol-4-yloxy)-3-cyano-N-(thiazol-2-yl)benzenesulfonamide] | 750
N#Cc1cc(S(=O)(=O)Nc2nccs2)ccc1Oc1cc(C(F)(F)F)nn1-c1ccccc1 [Example 168, 3-cyano-4-(1-phenyl-3-(trifluoromethyl)-1H-pyrazol-5-yloxy)-N-(thiazol-2-yl)benzenesulfonamide] | 70
Cn1nccc1-c1cc(F)ccc1Oc1ccc(S(=O)(=O)Nc2nccs2)cc1C#N [Example 169, 3-cyano-4-(4-fluoro-2-(1-methyl-1H-pyrazol-5-yl)phenoxy)-N-(thiazol-2-yl)benzenesulfonamide] | 50
Cn1nccc1-c1cc(Cl)ccc1Oc1ccc(S(=O)(=O)Nc2nccs2)cc1C#N [Example 170, 4-[4-Chloro-2-(1-methyl-1H-pyrazol-5-yl)phenoxy]-3-cyano-N-1,3-thiazol-2-ylbenzenesulfonamide] | 10
N#Cc1cc(S(=O)(=O)Nc2nccs2)ccc1Oc1ccc(Cl)cc1-c1ccnn1-c1ccccc1 [Example 171, 4-(4-chloro-2-(1-phenyl-1H-pyrazol-5-yl)phenoxy)-3-cyano-N-(thiazol-2-yl)benzenesulfonamide] | 110
N#Cc1cc(S(=O)(=O)Nc2nccs2)ccc1Oc1ccccc1-c1nnco1 [Example 173, 4-(2-(1,3,4-oxadiazol-2-yl)phenoxy)-3-cyano-N-(thiazol-2-yl)benzenesulfonamide] | 2090
N#Cc1cc(S(=O)(=O)Nc2nccs2)ccc1Oc1ccccc1-c1ccno1 [Example 174, 3-cyano-4-(2-(isoxazol-5-yl)phenoxy)-N-(thiazol-2-yl)benzenesulfonamide] | >10000
N#Cc1cc(S(=O)(=O)Nc2nccs2)ccc1Oc1ccc(F)cc1-c1ccnn1CC(F)(F)F [Example 175, 3-cyano-4-(4-fluoro-2-(1-(2,2,2-trifluoroethyl)-1H-pyrazol-5-yl)phenoxy)-N-(thiazol-2-yl)benzenesulfonamide] | 540
Cc1ccnn1-c1cc(F)ccc1Oc1ccc(S(=O)(=O)Nc2nccs2)cc1C#N [Example 176, 3-cyano-4-(4-fluoro-2-(5-methyl-1H-pyrazol-1-yl)phenoxy)-N-(thiazol-2-yl)benzenesulfonamide] | 8870
